From patent US20240385187A1, “BI-[…] REPORTER PARTICLE AND METHODS FOR MAKING AND USING THE SAME” (The Trustees of Indiana University, priority 2021, published 2024)

Tested on: phagosomes of RAW264.7 macrophage cells
Assay: Effect of V-ATPase inhibition on phagosome acidification and proteolysis, monitored in single phagosomes with Janus pH-proteolysis reporter particles
Format: cell-based
Details: for duration of proteolysis: onset of proteolysis to start of Rhodamine 110 intensity decrease, without ConA 24±10
Protocol: Dual color imaging started 5 minutes after Janus particle probes were added to cells and lasted for approximately 45 minutes. After particle internalization, the fluorescence intensity of the pH reporter increased first, followed by a similar intensity increase of the proteolysis reporter, indicating the progress of maturation (FIG. 6A). It was noted that some […] slowly diffused into the cell cytoplasm by the end of imaging, causing a slightly elevated fluorescence in the cell. This is expected because small dye molecules can passively diffuse across the phagosome membrane.
ConcanamycinA (ConA), a V-ATPase inhibitor, was added to disrupt acidification of phagosomes and its effect on proteolytic activities was monitored. […] The fluorescence decrease was caused by the continuous diffusion of Rhodamine 110, already in the phagosome lumen prior to the ConA addition, into the cell cytoplasm. After ConA addition, Rhodamine 110 lost by diffusion was not replaced by the generation of more.
To quantify the effect of ConA on proteolysis, duration of proteolysis was measured. In cells without ConA treatment, this was measured as the time from the onset of proteolysis (tproteolysis) to the start of the intensity plateau. In cells treated with ConA, this was measured as the time from the onset of proteolysis (tproteolysis) to the time when the Rhodamine 110 intensity started to decrease (FIG. 7C). Phagosome proteolysis in cells without ConA treatment lasted for 24±10 minutes on average (FIG. 7C). However, the duration of proteolysis was shorted to 16±5 minutes in the presence of 100 nM ConA and 10±4 minutes with 500 nM ConA.
In all phagosomes examined (N=21), proteolysis stopped within a short time after termination of acidification. […] This is consistent with the observation noted above that proteolysis started when the phagosome acidified to a threshold pH of 5.8±0.7. […] With the Janus reporter particle, it was identified that an acidic lumen is a prerequisite for the start of proteolytic activities in phagosomes, and their temporal relationship inside single phagosomes was quantitatively determined; data impossible to obtain by prior methods. Thus the bifunctional Janus pH-proteolysis reporter particle was able to detect both a disruption in phagosome acidification and a disruption in proteolytic activity inside a single phagosome caused by the presence of the V-ATPase inhibitor ConA.
Carboxylate polystyrene particles (500 nm) were purchased from Polysciences (Warrington, PA, USA). CF™ 640R NHS ester (succinimidyl ester), fluorescent peptide Rhodamine 110, bis-(N-CBZ-L-phenylalanyl-L-arginine amide) dihydrochloride (Z-FR-R110) were purchased from Biotium (Fremont, CA, USA). Amine-functionalized polystyrene particle (3 μm), carboxylated fluorophores (500 nm, ex/em 580/605), Alexa Fluor 568 NHS ester (succinimidyl ester), Alexa Fluor 647 NHS ester (succinimidyl ester), pHrodo™ iFL Red STP Ester, EZ-Link™ NHS-Biotin, sulfo-NHS (N-succinimidyl ester), streptavidin, and lipopolysaccharides from Escherichia coli (LPS) were purchased from ThermoFisher Scientific (Waltham, MA, USA). Bovine serum albumin (BSA), trypsin, nigericin sodium salt, and immunoglobulin G (IgG) from rabbit plasma were purchased from MilliporeSigma (St. Louis, MO, USA). 1-(3-Dimethylaminopropyl)-3-ethylcarbodiimide hydrochloride (EDC) was purchased from Alfa Aesar (Haverhill, MA, USA). Biotin pentylamine was purchased from Soltec BioScience (Beveraly MA). Concanamycin A was purchased from Santa Cruz Biotechnology (Dallas, TX, USA). Raw 264.7 macrophage cells were purchased from ATCC (Manassas, VA, USA). Ringer's solution (pH=7.2, 10 mM HEPES, 10 mM glucose, 155 mM NaCl, 2 mM NaH2PO4, 5 mM KCl, 2 mM CaCl2, 1 mM MgCl2) was used for live-cell imaging. Potassium-rich solution (135 mM KCl, 2 mM […], 1.2 mM CaCl2, 0.8 mM MgSO4) was used for intracellular pH calibration. […]

Q: How did the “phagosome acidification and proteolytic activity” value (100 nM ConA added to cells before the onset of acidification) turn out when `C/C=C/[C@H]1O[C@@](O)([C@@H](C)[C@H](O)[C@H](C)[C@H]2OC(=O)/C(OC)=C/C(C)=C/[C@@H](C)[C@@H](O)[C@@H](CC)[C@@H](O)[C@H](C)C/C(C)=C/C=C/[C@@H]2OC)C[C@@H](O[C@H]2C[C@@H](O)[C@H](OC(N)=O)[C@@H](C)O2)[C@@H]1C` [ConA, Concanamycin A] was run?
A: failed to acidify or exhibit proteolytic activities

Q: What about the duration of proteolysis (100 nM ConA, N=11) of the same molecule?
A: 16 ± 5 min

Q: What about the duration of proteolysis (500 nM ConA, N=10) of the same molecule?
A: 10 ± 4 min

Q: What about the “phagosome proteolysis (Rhodamine 110 fluorescence)” value (ConA added after acidification had started, within minutes after acidification stopped) of the same molecule?
A: phagosome proteolysis also stopped

Q: What about the phagosome acidification (ConA added to cells after acidification had started, lumen pH started to increase) of the same molecule?
A: stopped acidifying

Q: And the “average pH of single phagosomes at the termination point of proteolysis” value (ConA-treated cells, N=21 phagosomes)?
A: 5.1±0.4
